{"source": "patent US20100092465A1", "about": "“TREATMENT OF GRAFT-VERSUS-HOST DISEASE” (priority 2006, published 2010)", "key": {"P815 cells": {"system": "P815 cells", "assay": "CTL-specific lysis assay with splenocytes of GVHD mice", "format": "cell-based, mouse", "details": "splenocytes of treated animals versus PBS; calcein-labeled P815 targets", "description": "Efficacy of IL-27 antagonists was assayed in a mouse model of acute graft-vs-host disease (Durie et al., J. Clin. Invest. 94:1333-1338, 1994). Parental mice (C57BL/6; n=12) were euthanized, and their spleens were collected. The pooled spleens were smashed using two glass slides to dissociate splenic cells. Lysis buffer was added to the splenocyte suspension to remove red blood cells. The cells were washed in RPMI 1640 (10% FBS) medium and resuspended in an appropriate amount of PBS to make a cell concentration of 300 million cells/ml. Protein treatments were administered by intraperitoneal injection every other day beginning on day-1 and continuing until day 15. Dexamethasone (DEX) was administered by injection daily on days 0 through 6. […] Mice were monitored 3 times a week for changes in body weight and any signs of moribundity. […] Spleens were collected, and a CTL-specific lysis assay using P815 cells was performed as a quantitative measurement of acute GVHD. […]\nFor CTL assay, P815 cells (a tumor cell line from mice with the same MHC class as DBA2) were labeled with calcein, then splenocytes from each experimental animal were added to the calcein-labeled P815 cells at effector (splenocytes):target (P815) ratios of 100:1, 33:1, and 10:1. Four hours after incubation at 37° C., supernatants were collected and fluorescence was measured (485 nm/535 nm)."}, "huIL-27 [1]": {"biological_target": "T1, huIL-27 (Homo sapiens, UniProt Q14213+Q8NEV9)", "T1 sequence (Q14213 21-229)": "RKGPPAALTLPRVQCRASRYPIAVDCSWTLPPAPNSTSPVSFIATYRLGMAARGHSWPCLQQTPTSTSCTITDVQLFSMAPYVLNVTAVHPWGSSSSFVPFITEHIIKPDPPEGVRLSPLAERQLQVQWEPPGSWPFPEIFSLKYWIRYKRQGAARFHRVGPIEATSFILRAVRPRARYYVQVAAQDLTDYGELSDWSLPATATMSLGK", "T1 sequence (Q8NEV9 29-243)": "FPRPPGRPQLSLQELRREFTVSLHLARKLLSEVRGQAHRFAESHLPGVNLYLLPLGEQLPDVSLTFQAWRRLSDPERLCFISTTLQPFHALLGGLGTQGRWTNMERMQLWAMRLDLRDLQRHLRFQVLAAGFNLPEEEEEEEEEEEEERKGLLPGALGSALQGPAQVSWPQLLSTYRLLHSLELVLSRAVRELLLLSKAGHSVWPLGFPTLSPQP", "assay": "Phospho-STAT3 neutralization assay, mouse spleens, huIL-27", "format": "cell-based", "details": "Mouse Spleens; ligand huIL-27 at EC90", "source_text": "(§1) Whole mouse spleens were harvested from C57 B1/6 mice and washed two times with 1×PBS before being plated out at 2×10^5 cells/well in assay media (RPMI 1640 plus 10% fetal bovine serum) in 96-well, round-bottom tissue culture plates. Total human PBMC (peripheral blood mononuclear cells) were thawed from a frozen vial collected from a leukapherisis donation and washed two times with 1×PBS before being plated out at 10^6 cells/well in assay media in 96-well, round-bottom tissue culture plates. […] Following pre-incubation, treatments were added to the plates containing the cells and incubated together at 37° C. for 15 minutes.\n(§2) Following incubation, cells were washed with ice-cold wash buffer (BIO-PLEX Cell Lysis Kit, BIO-RAD Laboratories, Hercules, Calif.) and put on ice to stop the reaction according to manufacturer's instructions. […]\n(§3) Capture beads (BIO-PLEX Phospho-Stat3 Assay, BIO-RAD Laboratories) were combined with 50 μL of 1:1 diluted lysates and added to a 96-well filter plate according to manufacture's instructions (BIO-PLEX Phosphoprotein Detection Kit, BIO-RAD Laboratories). […] After the final wash, beads were resuspended in 125 μL/well of bead suspension buffer, shaken for 30 seconds, and read on an array reader (BIO-PLEX, BIO-RAD Laboratories) according to the manufacture's instructions. Data were analyzed using analytical softward (BIO-PLEX MANAGER 3.0, BIO-RAD Laboratories). […]"}, "huIL-27 [2]": {"biological_target": "T1, huIL-27", "assay": "Phospho-STAT3 neutralization assay, total human PBMCs, huIL-27", "format": "cell-based", "details": "Total Human PBMCs; ligand huIL-27 at EC90", "source_text": "as §1, §2, §3"}, "[3]": {"system": "acute graft-vs-host disease", "assay": "Mouse model of acute graft-vs-host disease", "format": "in vivo", "description": "Efficacy of IL-27 antagonists was assayed in a mouse model of acute graft-vs-host disease (Durie et al., J. Clin. Invest. 94:1333-1338, 1994). Parental mice (C57BL/6; n=12) were euthanized, and their spleens were collected. The pooled spleens were smashed using two glass slides to dissociate splenic cells. Lysis buffer was added to the splenocyte suspension to remove red blood cells. The cells were washed in RPMI 1640 (10% FBS) medium and resuspended in an appropriate amount of PBS to make a cell concentration of 300 million cells/ml. Protein treatments were administered by intraperitoneal injection every other day beginning on day-1 and continuing until day 15. Dexamethasone (DEX) was administered by injection daily on days 0 through 6. On day 0, 75 million donor splenic lymphocytes from B6 mice (250 .micro.l per injection) were injected intravenously into recipient mice (C57BL/6×DBA/2 F1 (BDF1); n=10 per group) mice. Mice were monitored 3 times a week for changes in body weight and any signs of moribundity. Mice that lost >20% of their initial body weight were euthanized. Otherwise, mice were sacrificed 18 days after the cell transfer. Spleens were collected, and a CTL-specific lysis assay using P815 cells was performed as a quantitative measurement of acute GVHD. Furthermore, spleens were stained for T- and B-cell markers, including MHC class I markers (H2^b and H2^d) to look at donor/recipient cell ratio (acute GVHD spleen cells are mostly donor cells). Sera were collected to measure serum level of IgG1, IgG2a, and IgE by ELISA, and cytokine and chemokine levels using a commercially available kit (Luminex Corporation, Austin, Tex.)."}}}
{"substance": "human IL-27RA-Fc5: human IL27RA extracellular domain (amino acids 1 to 512 of SEQ ID NO:5) fused to Fc5, effector minus human gamma1 Fc; SEQ ID NO:3", "values": [{"measurement": "CTL activity", "setting": "P815 cells", "result": "reduced CTL activity compared to PBS"}, {"measurement": "IC50", "setting": "huIL-27 [1]", "result": 320, "unit": "pM"}, {"measurement": "IC50", "setting": "huIL-27 [2]", "result": 950, "unit": "pM"}, {"measurement": "colon length shortening", "setting": "[3]; mouse, in vivo", "result": "did prevent colon length shortening"}, {"measurement": "splenomegaly", "setting": "[3]; mouse, in vivo", "result": "did not prevent splenomegaly"}, {"measurement": "maintenance of host spleen cells, CD4+ T cells, and Treg cells", "setting": "[3]; proteins 100 µl of 1 mg/ml IP every other day, day -1 to 15, DEX daily days 0-6, day 18", "result": "maintained host spleen cells, CD4+ T cells, and Treg cells"}, {"measurement": "Body weight loss", "setting": "[3]; versus PBS controls", "result": "not severe and was significantly less than in PBS controls"}]}
